From ChEMBL document CHEMBL4673218, “Kojyl cinnamate esters are peroxisome proliferator-activated receptor α/γ dual agonists” (Bioorg Med Chem, 2018)
The source made the active and inactive calls. The calls are words filed in the database; no cut-off is given here.

Key:
[1] = system: Adipose tissue derived mesenchymal stem cell; assay: Induction of adipogenesis in human AT-MSC cells assessed as increase in lipid droplet at 30 uM in IDX medium incubated for 5 days by Oil Red O staining based inverted phase microscopy relative to IDX control; type: functional; conditions: time 5.0 day
[2] = target: T1, PPAR alpha/gamma (Homo sapiens) (UniProt P37231+Q07869); assay: Agonist activity at PPARalpha/PPARgamma in human NHEK cells assessed as upregulation of SCD1 mRNA at 10 uM incubated for 3 days by qRT-PCR analysis; type: cell-based; conditions: filed as agonist, time 3.0 day
[3] = Induction of adipogenesis in human AT-MSC assessed as adiponectin secretion at 30 uM in IDX medium incubated for 5 days by ELISA relative to IDX control; type: functional, Adipose tissue derived mesenchymal stem cell; conditions: time 5 day
[4] = target: T2, Peroxisome proliferator-activated receptor gamma (Homo sapiens) (UniProt P37231); assay: (§1) Binding affinity to human recombinant PPARgamma by Cheng-Prusoff equation based competitive binding TR-FRET assay; conditions: filed as agonist
T2 sequence (whole entry): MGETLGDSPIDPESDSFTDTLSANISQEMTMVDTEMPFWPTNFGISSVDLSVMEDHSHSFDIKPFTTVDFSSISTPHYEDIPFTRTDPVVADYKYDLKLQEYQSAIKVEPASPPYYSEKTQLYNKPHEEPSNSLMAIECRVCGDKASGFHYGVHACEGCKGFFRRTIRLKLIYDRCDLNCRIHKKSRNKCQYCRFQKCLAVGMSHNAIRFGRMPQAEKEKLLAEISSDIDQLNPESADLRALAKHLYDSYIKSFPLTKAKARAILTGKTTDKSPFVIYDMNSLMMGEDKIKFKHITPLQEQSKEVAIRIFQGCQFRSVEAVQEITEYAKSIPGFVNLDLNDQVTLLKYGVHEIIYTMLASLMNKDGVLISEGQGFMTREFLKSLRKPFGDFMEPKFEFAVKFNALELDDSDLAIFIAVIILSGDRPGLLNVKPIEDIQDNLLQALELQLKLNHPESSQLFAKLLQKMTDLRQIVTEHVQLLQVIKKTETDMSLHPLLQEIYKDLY

[5] = target: T3, Peroxisome proliferator-activated receptor gamma (Homo sapiens, UniProt P37231); assay: as §1
T3 sequence (P37231 whole entry): T2 sequence (whole entry)

[6] = system: Adipose tissue derived mesenchymal stem cell; assay: Induction of adipogenesis in human AT-MSC cells assessed as increase in intracellular lipid accumulation at 30 uM in IDX medium incubated for 5 days by Oil Red O staining based inverted phase microscopy relative to IDX control; type: functional; conditions: time 5.0 day
[7] = target: T4, Peroxisome proliferator-activated receptor delta (Homo sapiens) (UniProt Q03181); assay: Binding affinity to human recombinant PPARdelta at 30 uM by competitive binding based TR-FRET assay
T4 sequence (whole entry): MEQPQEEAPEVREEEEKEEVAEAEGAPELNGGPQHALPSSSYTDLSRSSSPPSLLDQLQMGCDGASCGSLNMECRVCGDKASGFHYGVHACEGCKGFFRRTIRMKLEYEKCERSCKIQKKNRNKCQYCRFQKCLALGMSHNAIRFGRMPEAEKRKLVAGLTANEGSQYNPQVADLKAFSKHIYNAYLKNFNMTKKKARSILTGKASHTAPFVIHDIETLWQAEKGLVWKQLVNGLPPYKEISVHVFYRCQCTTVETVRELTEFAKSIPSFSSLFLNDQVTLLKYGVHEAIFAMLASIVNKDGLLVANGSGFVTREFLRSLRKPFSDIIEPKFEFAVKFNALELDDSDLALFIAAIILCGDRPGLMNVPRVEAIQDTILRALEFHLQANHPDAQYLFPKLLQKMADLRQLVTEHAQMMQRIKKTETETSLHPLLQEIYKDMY

[8] = target: T5, Peroxisome proliferator-activated receptor alpha (Homo sapiens) (UniProt Q07869); assay: (§2) Binding affinity to human recombinant PPARalpha by Cheng-Prusoff equation based competitive binding TR-FRET assay; conditions: filed as agonist
T5 sequence (whole entry): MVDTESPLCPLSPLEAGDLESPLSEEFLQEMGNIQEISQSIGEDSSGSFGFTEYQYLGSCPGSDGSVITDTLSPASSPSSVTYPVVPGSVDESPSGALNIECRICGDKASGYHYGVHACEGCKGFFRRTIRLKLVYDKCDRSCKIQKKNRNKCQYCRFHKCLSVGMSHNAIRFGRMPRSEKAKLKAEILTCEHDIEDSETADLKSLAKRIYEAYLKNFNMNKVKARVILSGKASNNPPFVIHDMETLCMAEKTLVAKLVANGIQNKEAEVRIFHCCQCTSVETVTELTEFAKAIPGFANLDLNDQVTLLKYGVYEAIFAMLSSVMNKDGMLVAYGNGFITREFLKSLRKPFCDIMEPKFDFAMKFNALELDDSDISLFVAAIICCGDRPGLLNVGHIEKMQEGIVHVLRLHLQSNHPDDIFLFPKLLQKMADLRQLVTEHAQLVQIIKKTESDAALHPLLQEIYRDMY

[9] = target: T6, Peroxisome proliferator-activated receptor alpha (Homo sapiens, UniProt Q07869); assay: as §2
T6 sequence (Q07869 whole entry): T5 sequence (whole entry)

[10] = target: T1, PPAR alpha/gamma (Homo sapiens); assay: Agonist activity at PPARalpha/PPARgamma in human NHEK cells assessed as upregulation of HMGCS2 mRNA at 10 uM incubated for 3 days by qRT-PCR analysis; type: cell-based; conditions: filed as agonist, time 3.0 day
[11] = target: T1, PPAR alpha/gamma (Homo sapiens); assay: Agonist activity at PPARalpha/PPARgamma in human AT-MSC cells assessed as upregulation of HMGCS2 mRNA at 10 uM incubated for 3 days by qRT-PCR analysis; type: cell-based; conditions: Adipose tissue derived mesenchymal stem cell, filed as agonist, time 3.0 day
[12] = target: T1, PPAR alpha/gamma (Homo sapiens); assay: Agonist activity at PPARalpha/PPARgamma in human NHEK cells assessed as upregulation of FADS2 mRNA at 10 uM incubated for 3 days by qRT-PCR analysis; type: cell-based; conditions: filed as agonist, time 3.0 day
[13] = target: T1, PPAR alpha/gamma (Homo sapiens); assay: Agonist activity at PPARalpha/PPARgamma in human AT-MSC cells assessed as upregulation of HMGCR mRNA at 10 uM incubated for 3 days by qRT-PCR analysis; type: cell-based; conditions: Adipose tissue derived mesenchymal stem cell, filed as agonist, time 3.0 day
[14] = Induction of adipogenesis in human AT-MSC assessed as adiponectin secretion at 30 uM in IDX medium incubated for 5 days by ELISA (reference value: 100 +/- 15 pg/ml); type: functional, Adipose tissue derived mesenchymal stem cell; conditions: time 5 day
[15] = target: T1, PPAR alpha/gamma (Homo sapiens); assay: Agonist activity at PPARalpha/PPARgamma in human AT-MSC cells assessed as upregulation of ACACB mRNA at 10 uM incubated for 3 days by qRT-PCR analysis; type: cell-based; conditions: Adipose tissue derived mesenchymal stem cell, filed as agonist, time 3.0 day

For `COc1ccc(OC)c(/C=C/C(=O)OCc2cc(=O)c(O)co2)c1`, which Activity [1] is on record?
Its Activity is “Active”.

What about the Activity [2] of the same compound?
Its Activity is “Active”.

And the “fold change (FC)” value [3]?
Its value is 3.83.

What about the Activity [4] of the same compound?
Its Activity is “Dose-dependent effect”.

And the Ki [5]?
Its Ki is 7 µM.

What about the Activity [6] of the same compound?
Its Activity is “Active”.

And the Activity [7]?
Its Activity is “inactive”.

What about the Activity [8] of the same compound?
The Activity was “Dose-dependent effect”.

What about the Ki [9] of the same compound?
The Ki was 9.5 µM.

What about the Activity [10] of the same compound?
The Activity was “Active”.

What about the Activity [11] of the same compound?
Its Activity is “Active”.

What about the Activity [12] of the same compound?
The Activity was “Active”.

What about the Activity [13] of the same compound?
Its Activity is “Active”.

What about the Activity [14] of the same compound?
Its Activity is 383 pg/mL.

What about the Activity [15] of the same compound?
The Activity was “Active”.
